According to ChEMBL document CHEMBL1125011, “Potential antimitotic agents. Synthesis of some ethyl benzopyrazin-7-ylcarbamates, ethyl pyrido[3,4-b]pyrazin-7-ylcarbamates, and ethyl pyrido[3,4-e]-as-triazin-7-ylcarbamates” (J Med Chem, 1990):

Assays:
[1] = test system: L1210; assay: Concentration required to inhibit 50% proliferation of cultured lymphoid leukemia L1210 cells was measured; assay type: functional, cell-based; conditions: Mus musculus
[2] = test system: L1210; assay: (§1) Concentration that causes a mitotic index of 0.5 for cultured lymphoid leukemia L1210 cells was determined; assay type: functional, Mus musculus
[3] = as §1; assay type: functional, Mus musculus

Row | Compound | IC50 [1] [µM] | MI0.5 [2] [µM] | MI0.5 [3] [µM]
1 | CCOC(=O)Nc1cc2nc(N)c(-c3ccccc3)nc2c(N)n1 | > 30 |  | 
2 | COC(=O)Nc1cc(N)c2nc(-c3ccccc3)cnc2c1 | > 100 |  | 
3 | CCOC(=O)Nc1cc2c(c(N)n1)N=C(c1ccccc1)CN2 |  |  | 0.0028
4 | CCOC(=O)c1cc(N)c2c(c1)NCC(c1ccccc1)=N2 | > 100 | >10 | 
5 | CCOC(=O)c1cc(N)c2nc(-c3ccccc3)cnc2c1 | > 100 | >10 | 
6 | CCOC(=O)Nc1cc2c(c(N)n1)NC(c1ccccc1)=NN2 | > 10 |  | 
7 | CCOC(=O)Nc1cc2nnc(-c3ccccc3)nc2c(N)n1 | > 10 |  | 

Now from value to compound, other results behind:

Row | IC50 [1] [µM] | Compound | MI0.5 [2] [µM] | MI0.5 [3] [µM]
8 | 24 | COC(=O)Nc1cc(N)c2c(c1)NCC(c1ccccc1)=N2 |  | 
9 | 0.3 | CCOC(=O)Nc1cc2ncc(-c3ccccc3)nc2c(N)n1 |  | 
10 | 0.042 | CCOC(=O)Nc1cc2nc(O)c(-c3ccccc3)nc2c(N)n1 | 0.022 | 
11 | 0.75 | COC(=O)Nc1cc(N)c2nc(-c3ccccc3)c(O)nc2c1 |  | 1.9
